28 compounds from ChEMBL document CHEMBL1146262, “Novel thiazolones as HCV NS5B polymerase allosteric inhibitors: Further designs, SAR, and X-ray complex structure” (Bioorg Med Chem Lett, 2007) can be followed below.

pIC50: −log10 of the molar value.

This assay is described as follows: Inhibition of HCV NS5B polymerase by RdRp-catalyzed elongation assay. The arrangement: species or system Hepacivirus hominis.
`CCc1ccc(/C=C2\SC(NC(C(=O)O)c3ccc(Br)cc3)=NC2=O)o1` (stereo not drawn): the pIC50 (as a rule, the IC50 on a negative log10 scale, so that one unit is a factor of ten) was 5.22.
Next, `CCc1ccc(/C=C2\SC(NC(C(=O)O)c3ccc(C(F)(F)F)cc3)=NC2=O)o1` (stereo not drawn): 4.68; `CCc1ccc(/C=C2\SC(NC(C(=O)O)c3ccc4ccccc4c3)=NC2=O)o1` (stereo not drawn): 4.85.
The result for `CCc1ccc(/C=C2\SC(NC(C(=O)O)c3ccc(C)cc3C)=NC2=O)o1` (stereo not drawn) reads 4.92.
Next, `CCc1ccc(/C=C2\SC(NC(C(=O)NO)c3ccc(Cl)cc3Cl)=NC2=O)o1` (stereo not drawn): 5.26; `CCc1ccc(/C=C2\SC(NC(c3ccccc3)c3nn[nH]n3)=NC2=O)o1` (stereo not drawn): 4.72.
`CCc1ccc(/C=C2\SC(NC(C(=O)O)C3(C)CCCC3)=NC2=O)o1` (stereo not drawn) gave a negative logarithm of the IC50 (pIC50) of less than 4.00.
`CCc1ccc(/C=C2\SC(NC(C(=O)O)c3ccc(F)c(Cl)c3)=NC2=O)o1` (stereo not drawn) gave a pIC50 of 4.62.
Regarding `CCc1ccc(/C=C2\SC(NC(c3ccc(C)cc3)c3nn[nH]n3)=NC2=O)o1` (stereo not drawn), the pIC50 was 4.85.
Take `CCc1ccc(/C=C2\SC(NC(C(=O)O)c3ccc(C)cc3)=NC2=O)o1` (stereo not drawn): the pIC50 is 4.96.
Turning to `CCc1ccc(/C=C2\SC(NC(Cc3ccccc3)C(=O)O)=NC2=O)o1` (stereo not drawn), the negative logarithm of the IC50 (pIC50) was 4.17.
The result for `CCc1ccc(/C=C2\SC(NC(C(=O)O)c3ccc(Cl)cc3Cl)=NC2=O)o1` (stereo not drawn) reads 5.12; that for `CCc1ccc(/C=C2\SC(N[C@H](C(=O)O)c3ccc(F)cc3)=NC2=O)o1` (stereo in doubt), 5.52.
Next, `CCc1ccc(/C=C2\SC(N[C@H](CC(=O)O)c3ccc(C#N)cc3)=NC2=O)o1` (stereo in doubt): less than 4.00; `CCc1ccc(/C=C2\SC(N[C@H](CC(=O)O)c3ccc(C)cc3)=NC2=O)o1` (stereo in doubt): 4.57.
The result for `CCc1ccc(/C=C2\SC(N[C@H](C(=O)O)C3CCCCC3)=NC2=O)o1` (stereo in doubt) reads 4.60; that for `CCc1ccc(/C=C2\SC(N[C@H](C(=O)O)c3ccccc3)=NC2=O)o1` (stereo in doubt), 4.26; that for `CCc1ccc(/C=C2\SC(N[C@H](CC(=O)O)c3cccnc3)=NC2=O)o1` (stereo in doubt), less than 4.00.
`CCc1ccc(/C=C2\SC(N[C@H](CC(=O)O)c3ccccc3)=NC2=O)o1` (stereo in doubt): the negative-log IC50 (pIC50) is 4.23.
Next, `CCc1ccc(/C=C2\SC(N[C@H](C(N)=O)c3ccc(F)cc3)=NC2=O)o1` (stereo in doubt): 4.80; `CCc1ccc(/C=C2\SC(N[C@@H](CC(=O)O)c3ccc(Cl)cc3Cl)=NC2=O)o1` (stereo in doubt): 5.05.
The compound `CCc1ccc(/C=C2\SC(N[C@H](CC(=O)O)c3ccc(Cl)cc3Cl)=NC2=O)o1` (stereo in doubt) gave a pIC50 of 5.07.
In turn, `CCc1ccc(/C=C2\SC(N[C@H](C(=O)O)c3ccc(O)cc3)=NC2=O)o1` (stereo in doubt) gave a pIC50 of 4.37.
The result for `CCc1ccc(/C=C2\SC(N[C@H](CC(=O)O)c3ccc(Br)cc3)=NC2=O)o1` (stereo in doubt) reads 4.78.
Next, `CCc1ccc(/C=C2\SC(N[C@H](Cc3nn[nH]n3)c3ccccc3)=NC2=O)o1` (stereo in doubt): 4.62; `CCc1ccc(/C=C2\SC(N[C@@H](CC(=O)O)c3ccc(F)cc3)=NC2=O)o1` (stereo in doubt): 4.89; `CCc1ccc(/C=C2\SC(N[C@H](CC(=O)O)c3ccc(F)cc3)=NC2=O)o1` (stereo in doubt): 4.36.
The result for `CCc1ccc(/C=C2\SC(N[C@@H](C(=O)O)c3ccc(F)cc3)=NC2=O)o1` (stereo in doubt) [VALEANT] reads 4.30.
